Experiment: Test 1: Solubility Test (water as test medium, 37° C., HPLC)
Format: physicochemical
Settings: for solubility in aqueous methyl cellulose or HPMC solution: test medium e.g. 0.5% aqueous methyl cellulose or HPMC solution, compared with value in water (below 3 μg/mL); for solubility (concentration of Compound A in suspension): 37° C., at the point of 30 minutes in Test 1
Procedure: Each mixture was sampled at several points of time, and each sample was filtered through a membrane filter (Sunprep LCR13-LG, manufactured by Millipore Corp., Japan).
The measurement conditions used for HPLC in Test 1 were as follows: • Detector: Ultraviolet absorptiometer (measurement wavelength: 246 nm) • Column: Stainless steel tube with an inner diameter of 4.6 mm and a length of 25 cm, for 5 μm liquid chromatography, • Column temperature: Fixed temperature at around 40° C. • Mobile phase: Mixture of methanol and water (55:45) • Flow rate: 1 mL/min

| Structure (SMILES) | solubility in aqueous methyl cellulose or HPMC solution | solubility (concentration of Compound A in suspension) (water) | solubility (water, 37 °C, water, thermodynamic from solid, water 37° C., 200 rpm paddles, at 30 minutes after the beginning of the test and after, read-out: concentration of Compound A in solubility test (FIG. 1)) |
| --- | --- | --- | --- |
| COc1cc2[nH]c(=O)c3nn(C(OC(=O)OC(C)C)C(C)C)nc3c(=O)c2cc1OC (single isomer, unassigned) [Comparative Example 2, 2-(1-Isopropoxycarbonyloxy-2-methylpropyl)-7,8-dimethoxy-4(5H), 10-dioxo-2H-1,2,3-triazolo[4,5-c][1]benzazepine] | nearly equal to the above-described value of concentration | 2.4 µg/mL |  |
| COc1cc2[nH]c(=O)c3nn(C(OC(=O)OC(C)C)C(C)C)nc3c(=O)c2cc1OC (single isomer, unassigned) [Comparative Example 1, 2-(1-Isopropoxycarbonyloxy-2-methylpropyl)-7,8-dimethoxy-4(5H), 10-dioxo-2H-1,2,3-triazolo[4,5-c][1]benzazepine] | nearly equal to the above-described value of concentration | 0.8 µg/mL | < 3 µg/mL |
